PMC8296985, “A Covalent Calmodulin Inhibitor as a Tool to Study Cellular Mechanisms of K-Ras-Driven Stemness” (Frontiers in Cell and Developmental Biology, 2021)

target: calmodulin (CaM) (Bos taurus, UniProt P62157); test: Fluorescence polarization assay, displacement of F-PMCA peptide from CaM; settings: not given

Row | Structure (SMILES) | Kd [µM] | Ki [µM]
1 | CC(C)c1ccc2cc(C(F)(F)F)c(=O)c3c(N4CCCC4)c(C=O)c(c1)c23 [Compound 4] | 39 | 
2 | Cc1c(N2CCCC2)c2c(=O)c(C(F)(F)F)cc3ccc(C(C)C)cc1c32 [Compound 11, 2-pyrrolidinylbenzazulen-3-one] | 0.81 | 78
3 | CC(C)c1ccc2cc(C(F)(F)F)c(=O)c3c(N4CCOCC4)c(C=O)c(c1)c23 [Compound 2] | 0.23 | 13
4 | Cc1c(NCCO)c2c(=O)c(C(F)(F)F)cc3ccc(C(C)C)cc1c32 [Compound 13] | 62 | 
5 | CC(C)c1ccc2cc(C(F)(F)F)c(=O)c3c(N4CCC4)c(C=O)c(c1)c23 [Compound 5] | 29 | 

same assay, conditions: CaM-binding affinity after 24-h incubation, F-PMCA probe

Row | Structure (SMILES) | Kd ± SD
6 | Cc1c(N2CCN(C)CC2)c2c(=O)c(C(F)(F)F)cc3ccc(C(C)C)cc1c32 [Compound 10] | Inconclusive

same assay, conditions: after 24-h incubation; higher affinity than OphA

Row | Structure (SMILES) | affinity for CaM relative to OphA [fold]
7 | CC(C)c1ccc2cc(C(F)(F)F)c(=O)c3c(N4CCOCC4)c(C=O)c(c1)c23 [Compound 2] | 15

same assay, conditions: read-out: k2/Ki second-order rate constant

Row | Structure (SMILES) | kinact/KI [M⁻¹ s⁻¹]
8 | Cc1c(N2CCCC2)c2c(=O)c(C(F)(F)F)cc3ccc(C(C)C)cc1c32 [Compound 11, 2-pyrrolidinylbenzazulen-3-one] | 1.11
9 | CC(C)c1ccc2cc(C(F)(F)F)c(=O)c3c(N4CCOCC4)c(C=O)c(c1)c23 [Compound 2] | 25.8

test system: K-RasG12V; test: K-RasG12V nanoclustering-BRET assay in HEK293-EBNA cells; format: cell-based; settings: 2-h treatment timeframe; OphA 10 μM, mevastatin 10 μM
Procedure: BRET assays were essentially performed as described by others ([Lavoie et al., 2013]; [Bery et al., 2018]). About 100,00–150,000 HEK293-EBNA ([Meissner et al., 2001]) cells were seeded per well of a 12-well plate in 1 ml of DMEM containing 10% FBS and 2 mM L-glutamine and were grown for 24 h. Next day, Rluc8-tagged donor and GFP2-tagged acceptor constructs were transfected into cells using a jetPRIME transfection reagent (cat. no. 114-75, Polyplus). Each well was transfected with about 1 μg of plasmid DNA using 3 μl of the jetPRIME reagent. For BRET donor saturation titration experiments, the concentration of donor plasmid (25 ng) was kept constant, and the concentration of acceptor plasmid was increased from 0 to 500 ng for RasG12V BRET pairs and 0–1,000 ng for K-Ras/CaM BRET pairs. The empty pcDNA3.1(-) plasmid was used to top-up the total DNA load per transfection. After 24 h of transfection, cells were treated with compounds or vehicle control (DMSO 0.2% v/v in a growth medium) at the specified concentration for 24 h or the stipulated time period in case of the time-course experiments. The cells from one well of a 12-well plate were collected, washed, and re-plated in PBS (cat. no. 14190-094, Gibco, Thermo Fisher Scientific) on flat bottom, white 96-well plates (cat. no. 236108, Nunc, Thermo Fisher Scientific) as four technical replicates containing 90 μl of cell suspension per well. Then fluorescence intensity followed by BRET readings were carried out on a Clariostar (BMG Labtech) plate reader at 25°C. The fluorescence intensity (RFU) of GFP2 was measured with excitation at 405 ± 10 nm and emission 515 ± 10 nm; it is proportional to the acceptor concentration [acceptor]. BRET readings were taken well by well by adding 10 μl of 100 μM coelenterazine 400a (cat. no. C-320, GoldBio), the Rluc8 substrate to each well (final concentration of 10 μM) using the injector present in the plate reader. Luminescence emission intensities were simultaneously recorded at 410 ± 40 nm (RLU, proportional to [donor]) and 515 ± 15 nm (BRET signal).
The raw BRET ratio was calculated as the BRET signal measured at 515 nm divided by the emission signal measured at 410 nm (RLU). The BRET ratio was obtained by subtracting the raw BRET ratio by a background BRET signal measured for cells expressing only the donor ([Bacart et al., 2008]) as indicated in the formula below:
For BRET donor saturation titration experiments, the BRET ratio was plotted against the [acceptor]/[donor] ratio. Technical repeat data points were averaged, and data points from all biological repeats were collected into one graph for subsequent fitting. The BRET ratio vs. relative expression data were fitted using a binding saturation equation in the Prism (GraphPad) software to obtain BRETmax and BRET50 using the equation y=BRETmax×x/BRET50+x , where x is the relative expression and y is the BRET ratio. BRETmax represents the maximum saturation BRET signal and depends on the structural parameters (distance, orientation) of the BRET complex. BRET50 corresponds to the ratio of the acceptor construct over the donor construct required to attain 50% of the maximum BRET signal and is a measure of the effective relative affinity between the interacting BRET pair ([Marullo and Bouvier, 2007]).
When applying the DSS analysis to nanoclustering-BRET data, we used mevastatin (10 μM) to obtain the asymptote parameter (a) for the maximal inhibition effect, as it prevents the prenylation of Ras proteins, their plasma membrane trafficking, and therefore nanoclustering. Otherwise, normalized BRET ratio data were converted to % inhibition and then subsequently uploaded onto the Breeze site (see text footnote 1).

Row | Structure (SMILES) | time-dependent change of K-RasG12V nanoclustering-BRET signal
10 | CC[C@H](C)C(=O)O[C@H]1CCC=C2C=C[C@H](C)[C@H](CC[C@@H]3C[C@@H](O)CC(=O)O3)[C@H]21 [mevastatin] | did not cause any reduction in the BRET signal

same assay, conditions: 24 h; calmidazolium 20 μM, OphA 2.5 μM, prostratin 10 μM, mevastatin 10 μM, benzazulenones 20 μM

Row | Structure (SMILES) | K-Ras selective reduction of nanoclustering-BRET (K-Ras vs H-Ras)
11 | CC[C@H](C)C(=O)O[C@H]1CCC=C2C=C[C@H](C)[C@H](CC[C@@H]3C[C@@H](O)CC(=O)O3)[C@H]21 [mevastatin] | fairly indiscriminately

test system: Hs 578T; test: 3D spheroid (tumorosphere) formation assay, low attachment, serum-free, alamarBlue; format: cell-based; settings: Homo sapiens, 72 h; Hs 578T (H-RasG12D) 3D tumorosphere, 3 days treatment; read-out: IC50
Procedure: (§1) 3D spheroid formation assays were performed in 96-well low-attachment, suspension culture plates (cat. no. 655185, Cellstar, Greiner Bio-One) under serum-free condition. About 1,000 (MDA-MB-231, NCI-H358, and MIA PaCa-2) or 2,500 (Hs 578T) cells per well were seeded in 50 μl of either an RPMI medium (cat. no. 52400-025, Gibco, Thermo Fisher Scientific) (MDA-MB-231, A375, and NCI-H358) or DMEM (cat. no. 41965-039, Gibco, Thermo Fisher Scientific) (Hs 578T and MIA PaCa-2), containing 0.5% MethoCult (cat. no. SF H4636, Stemcell technologies), 1x B27 (cat. no. 17504044, Gibco, Thermo Fisher Scientific), 25 ng/ml EGF (cat. no. E9644, Sigma-Aldrich), and 25 ng/ml FGF (cat. no. RP-8628, Thermo Fisher Scientific). Cells were cultured for 3 days and then treated with compounds or vehicle control (DMSO 0.1% v/v in growth medium) for another 3 days. The cells were supplemented with a fresh growth medium on the third day together with the drug treatment. For knockdown experiments, cells were seeded in 12-well plates and treated with either 50 nM scrambled siRNA (cat. no. 1022076, QIAGEN) or indicated concentrations of siRNAs. Next day, cells were collected by trypsinization and re-plated into 96-well plates for 3D spheroid suspension culture.
(§2) Spheroid formation efficiency was analyzed by an alamarBlue assay reagent (cat. no. DAL1100, Thermo Fisher Scientific). A 10% final volume of the alamarBlue reagent was added to each well of the plate and incubated for 4 h at 37°C. Then the fluorescence intensity was measured using the FLUOstar OPTIMA plate reader (BMG Labtech, Germany) with an excitation wavelength of 560 ± 5 nm and an emission wavelength of 590 ± 5 nm.
(§3) To quantitatively profile the drug sensitivity with a more robust parameter than the IC50 or EC50 values, the drug sensitivity score (DSS) analysis was employed. DSS values are essentially normalized area under the curve (AUC) measures of dose-response inhibition data ([Yadav et al., 2014]). Drug response data files (in Excel) ready for online analysis were prepared according to the example file obtained from the DSS pipeline website, called Breeze^1 ([Potdar et al., 2020]). Either raw fluorescence intensity measurements or normalized % inhibition data (for BRET assay analysis) were uploaded.
(§4) DSS3 was employed to emphasize drugs that obtain their response area over a relatively wide dose window, as compared to drugs that show increased response only at the higher end of the concentration range. After logistic fitting of the dose-response inhibition data, the area under the curve (AUC) was determined as the exact solution. A 10% minimal activity threshold (t) was set. The maximum (Cmax) and minimum (Cmin) concentrations were used for screening of the inhibitors, with Cmax = x2 and x1 concentration with minimal activity t.

Row | Structure (SMILES) | IC50 [µM]
12 | CC(C)c1ccc2cc(C(F)(F)F)c(=O)c3c(N4CCCC4)c(C=O)c(c1)c23 [Compound 4] | > 40
13 | Cc1c(N2CCCC2)c2c(=O)c(C(F)(F)F)cc3ccc(C(C)C)cc1c32 [Compound 11, 2-pyrrolidinylbenzazulen-3-one] | 5.2
14 | Cc1c(N2CCN(C)CC2)c2c(=O)c(C(F)(F)F)cc3ccc(C(C)C)cc1c32 [Compound 10] | 23.1
15 | CC(C)c1ccc2cc(C(F)(F)F)c(=O)c3c(N4CCOCC4)c(C=O)c(c1)c23 [Compound 2] | 24.9
16 | Cc1c(NCCO)c2c(=O)c(C(F)(F)F)cc3ccc(C(C)C)cc1c32 [Compound 13] | > 40
17 | CC(C)c1ccc2cc(C(F)(F)F)c(=O)c3c(N4CCC4)c(C=O)c(c1)c23 [Compound 5] | 13.2

same assay, conditions: Homo sapiens; Hs 578T 3D tumorosphere; log scale; read-out: logIC50 ± SD (converted)

Row | Structure (SMILES) | IC50 [µM]
18 | Cc1c(N2CCCC2)c2c(=O)c(C(F)(F)F)cc3ccc(C(C)C)cc1c32 [Compound 11, 2-pyrrolidinylbenzazulen-3-one] | 5.89
19 | Cc1c(N2CCN(C)CC2)c2c(=O)c(C(F)(F)F)cc3ccc(C(C)C)cc1c32 [Compound 10] | 22.9
20 | CC(C)c1ccc2cc(C(F)(F)F)c(=O)c3c(N4CCOCC4)c(C=O)c(c1)c23 [Compound 2] | 24.5
21 | CC(C)c1ccc2cc(C(F)(F)F)c(=O)c3c(N4CCC4)c(C=O)c(c1)c23 [Compound 5] | 13.2

same assay, conditions: Hs 578T 3D tumorosphere; log scale

Row | Structure (SMILES) | logIC50 ± SD
22 | CC(C)c1ccc2cc(C(F)(F)F)c(=O)c3c(N4CCCC4)c(C=O)c(c1)c23 [Compound 4] | Inconclusive
23 | Cc1c(NCCO)c2c(=O)c(C(F)(F)F)cc3ccc(C(C)C)cc1c32 [Compound 13] | Inconclusive

test system: MDA-MB-231; test: as above; format: cell-based; settings: Homo sapiens, 72 h; MDA-MB-231 (K-RasG13D) 3D tumorosphere, 3 days treatment; read-out: IC50
Procedure: as §1, §2, §3, §4

Row | Structure (SMILES) | IC50 [µM]
24 | CC(C)c1ccc2cc(C(F)(F)F)c(=O)c3c(N4CCCC4)c(C=O)c(c1)c23 [Compound 4] | > 40
25 | Cc1c(N2CCCC2)c2c(=O)c(C(F)(F)F)cc3ccc(C(C)C)cc1c32 [Compound 11, 2-pyrrolidinylbenzazulen-3-one] | 15.4
26 | Cc1c(N2CCN(C)CC2)c2c(=O)c(C(F)(F)F)cc3ccc(C(C)C)cc1c32 [Compound 10] | > 40
27 | CC(C)c1ccc2cc(C(F)(F)F)c(=O)c3c(N4CCOCC4)c(C=O)c(c1)c23 [Compound 2] | 22.8
28 | Cc1c(NCCO)c2c(=O)c(C(F)(F)F)cc3ccc(C(C)C)cc1c32 [Compound 13] | > 40
29 | CC(C)c1ccc2cc(C(F)(F)F)c(=O)c3c(N4CCC4)c(C=O)c(c1)c23 [Compound 5] | 34.5

same assay, conditions: Homo sapiens; MDA-MB-231 3D tumorosphere; log scale; read-out: logIC50 ± SD (converted)

Row | Structure (SMILES) | IC50 [µM]
30 | Cc1c(N2CCCC2)c2c(=O)c(C(F)(F)F)cc3ccc(C(C)C)cc1c32 [Compound 11, 2-pyrrolidinylbenzazulen-3-one] | 15.5
31 | CC(C)c1ccc2cc(C(F)(F)F)c(=O)c3c(N4CCOCC4)c(C=O)c(c1)c23 [Compound 2] | 22.9
32 | CC(C)c1ccc2cc(C(F)(F)F)c(=O)c3c(N4CCC4)c(C=O)c(c1)c23 [Compound 5] | 34.7

same assay, conditions: MDA-MB-231 3D tumorosphere; log scale

Row | Structure (SMILES) | logIC50 ± SD
33 | CC(C)c1ccc2cc(C(F)(F)F)c(=O)c3c(N4CCCC4)c(C=O)c(c1)c23 [Compound 4] | Inconclusive
34 | Cc1c(N2CCN(C)CC2)c2c(=O)c(C(F)(F)F)cc3ccc(C(C)C)cc1c32 [Compound 10] | Inconclusive
35 | Cc1c(NCCO)c2c(=O)c(C(F)(F)F)cc3ccc(C(C)C)cc1c32 [Compound 13] | Inconclusive

same assay, conditions: MDA-MB-231 vs Hs 578T 3D spheroid formation, 0.6–40 μM; numbers above bars Fig. 1A,B

Row | Structure (SMILES) | KRAS/HRAS mutant cell line DSS3 ratio
36 | CC(C)c1ccc2cc(C(F)(F)F)c(=O)c3c(N4CCCC4)c(C=O)c(c1)c23 [Compound 4] | 2.0
37 | Cc1c(N2CCCC2)c2c(=O)c(C(F)(F)F)cc3ccc(C(C)C)cc1c32 [Compound 11, 2-pyrrolidinylbenzazulen-3-one] | 1.2
38 | Cc1c(N2CCN(C)CC2)c2c(=O)c(C(F)(F)F)cc3ccc(C(C)C)cc1c32 [Compound 10] | 0.03
39 | CC(C)c1ccc2cc(C(F)(F)F)c(=O)c3c(N4CCOCC4)c(C=O)c(c1)c23 [Compound 2] | 3.3
40 | Cc1c(NCCO)c2c(=O)c(C(F)(F)F)cc3ccc(C(C)C)cc1c32 [Compound 13] | 14.5
41 | CC(C)c1ccc2cc(C(F)(F)F)c(=O)c3c(N4CCC4)c(C=O)c(c1)c23 [Compound 5] | 0.7
